From PubChem BioAssay (NCI)
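48-hour exposure; five concentrations; linearly interpolated endpoints. At the GI50, growth is halved. TGI marks complete inhibition of growth.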

Columns and labels:
Assay in all cases: NCI tumour cell line growth inhibition, 48 h
A549 NSCLC = system: A549 NSCLC
SK-MEL-2 melanoma = system: SK-MEL-2 melanoma
RPMI-8226 leukemia = system: RPMI-8226 leukemia
MDA-MB-231 breast = system: MDA-MB-231 breast
HL-60(TB) leukemia = system: HL-60(TB) leukemia
NCI-H226 lung = system: NCI-H226 lung
MOLT-4 leukemia = system: MOLT-4 leukemia
SW-620 colon = system: SW-620 colon
MDA-MB-435 = system: MDA-MB-435
COLO 205 colon = system: COLO 205 colon
SK-OV-3 ovarian = system: SK-OV-3 ovarian
SN12C renal = system: SN12C renal
EKVX NSCLC = system: EKVX NSCLC
UACC-257 melanoma = system: UACC-257 melanoma
NCI-H522 lung = system: NCI-H522 lung
TK-10 renal = system: TK-10 renal
BT-549 breast = system: BT-549 breast
ACHN renal = system: ACHN renal
OVCAR-3 ovarian = system: OVCAR-3 ovarian
CAKI-1 renal = system: CAKI-1 renal
K-562 leukemia = system: K-562 leukemia
HCT-15 colon = system: HCT-15 colon
SR leukemia = system: SR leukemia
NCI-H460 lung = system: NCI-H460 lung
CCRF-CEM leukemia = system: CCRF-CEM leukemia
OVCAR-8 ovarian = system: OVCAR-8 ovarian
NCI-H23 lung = system: NCI-H23 lung
PC-3 prostate = system: PC-3 prostate
T-47D breast = system: T-47D breast
A498 renal = system: A498 renal
HT29 colon = system: HT29 colon
MALME-3M melanoma = system: MALME-3M melanoma
HCC-2998 colon = system: HCC-2998 colon
SF-295 CNS = system: SF-295 CNS
786-0 renal = system: 786-0 renal
HCT-116 colon = system: HCT-116 colon
HOP-62 NSCLC = system: HOP-62 NSCLC
UACC-62 melanoma = system: UACC-62 melanoma
OVCAR-5 ovarian = system: OVCAR-5 ovarian
LOX IMVI melanoma = system: LOX IMVI melanoma
OVCAR-4 ovarian = system: OVCAR-4 ovarian
U251 CNS = system: U251 CNS
NCI/ADR-RES ovarian = system: NCI/ADR-RES ovarian
SF-268 CNS = system: SF-268 CNS
SK-MEL-28 melanoma = system: SK-MEL-28 melanoma
RXF 393 renal = system: RXF 393 renal
SNB-19 CNS = system: SNB-19 CNS
MCF7 breast = system: MCF7 breast
UO-31 renal = system: UO-31 renal
KM12 colon = system: KM12 colon
DU-145 prostate = system: DU-145 prostate
SF-539 CNS = system: SF-539 CNS
SNB-75 CNS = system: SNB-75 CNS
HOP-92 NSCLC = system: HOP-92 NSCLC
M14 melanoma = system: M14 melanoma
SK-MEL-5 melanoma = system: SK-MEL-5 melanoma
HS 578T breast = system: HS 578T breast
IGROV1 ovarian = system: IGROV1 ovarian

O=C1[C@H]2Cc3c([nH]c4ccccc34)[C@@H](c3ccc(Br)cc3)N2C(=O)CN1C1CCN(Cc2ccccc2)CC1
GI50 (A549 NSCLC): 3.7 µM
TGI (A549 NSCLC): 13.5 µM
GI50 (SK-MEL-2 melanoma): 5.73 µM
TGI (SK-MEL-2 melanoma): 14.9 µM
GI50 (RPMI-8226 leukemia): 1.74 µM
TGI (RPMI-8226 leukemia): 7.67 µM
GI50 (MDA-MB-231 breast): 3.44 µM
TGI (MDA-MB-231 breast): 7.56 µM
GI50 (HL-60(TB) leukemia): 2.3 µM
TGI (HL-60(TB) leukemia): 8.31 µM
GI50 (NCI-H226 lung): 5.04 µM
TGI (NCI-H226 lung): > 25 µM
GI50 (MOLT-4 leukemia): 1.5 µM
TGI (MOLT-4 leukemia): > 25 µM
GI50 (SW-620 colon): 3.32 µM
TGI (SW-620 colon): 7.15 µM
GI50 (MDA-MB-435): 3.5 µM
TGI (MDA-MB-435): 7.02 µM
GI50 (COLO 205 colon): 2.62 µM
TGI (COLO 205 colon): 6.04 µM
GI50 (SK-OV-3 ovarian): 6 µM
TGI (SK-OV-3 ovarian): > 25 µM
GI50 (SN12C renal): 3.17 µM
TGI (SN12C renal): 6.72 µM
GI50 (EKVX NSCLC): 3.35 µM
TGI (EKVX NSCLC): 14.7 µM
GI50 (UACC-257 melanoma): 4.64 µM
TGI (UACC-257 melanoma): 10.2 µM
GI50 (NCI-H522 lung): 4.6 µM
TGI (NCI-H522 lung): 10.3 µM
GI50 (TK-10 renal): 5.79 µM
TGI (TK-10 renal): 12.7 µM
GI50 (BT-549 breast): 3.4 µM
TGI (BT-549 breast): 7.49 µM
GI50 (ACHN renal): 3.76 µM
TGI (ACHN renal): 9.65 µM
GI50 (OVCAR-3 ovarian): 3.27 µM
TGI (OVCAR-3 ovarian): 7.23 µM
GI50 (CAKI-1 renal): 2.44 µM
TGI (CAKI-1 renal): 7.58 µM
GI50 (K-562 leukemia): 1.06 µM
TGI (K-562 leukemia): 9.94 µM
GI50 (HCT-15 colon): 2.62 µM
TGI (HCT-15 colon): 5.92 µM
GI50 (SR leukemia): 1.86 µM
TGI (SR leukemia): 8.79 µM
GI50 (NCI-H460 lung): 3.87 µM
TGI (NCI-H460 lung): 7.82 µM
GI50 (CCRF-CEM leukemia): 3.3 µM
TGI (CCRF-CEM leukemia): > 25 µM
GI50 (OVCAR-8 ovarian): 3.99 µM
TGI (OVCAR-8 ovarian): 9.01 µM
GI50 (NCI-H23 lung): 3.98 µM
TGI (NCI-H23 lung): 9.4 µM
GI50 (PC-3 prostate): 1.67 µM
TGI (PC-3 prostate): 7.3 µM
GI50 (T-47D breast): 3.54 µM
TGI (T-47D breast): 15.7 µM
GI50 (A498 renal): 4.28 µM
TGI (A498 renal): 8.04 µM
GI50 (HT29 colon): 3 µM
TGI (HT29 colon): 7.74 µM
GI50 (MALME-3M melanoma): 3.69 µM
TGI (MALME-3M melanoma): 7.81 µM
GI50 (HCC-2998 colon): 3.44 µM
TGI (HCC-2998 colon): 7.94 µM
GI50 (SF-295 CNS): 4.56 µM
TGI (SF-295 CNS): 9.1 µM
GI50 (786-0 renal): 3.46 µM
TGI (786-0 renal): 7 µM
GI50 (HCT-116 colon): 2.54 µM
TGI (HCT-116 colon): 5.72 µM
GI50 (HOP-62 NSCLC): 3.98 µM
TGI (HOP-62 NSCLC): 10.8 µM
GI50 (UACC-62 melanoma): 3.58 µM
TGI (UACC-62 melanoma): 9.3 µM
GI50 (OVCAR-5 ovarian): 5.1 µM
TGI (OVCAR-5 ovarian): 12.7 µM
GI50 (LOX IMVI melanoma): 2.73 µM
TGI (LOX IMVI melanoma): 6.92 µM
GI50 (OVCAR-4 ovarian): 4.24 µM
TGI (OVCAR-4 ovarian): 13.1 µM
GI50 (U251 CNS): 2.96 µM
TGI (U251 CNS): 6.53 µM
GI50 (NCI/ADR-RES ovarian): 3.58 µM
TGI (NCI/ADR-RES ovarian): 9.46 µM
GI50 (SF-268 CNS): 3.49 µM
TGI (SF-268 CNS): > 25 µM
GI50 (SK-MEL-28 melanoma): 4.41 µM
TGI (SK-MEL-28 melanoma): 8.53 µM
GI50 (RXF 393 renal): 2.91 µM
TGI (RXF 393 renal): 6.41 µM
GI50 (SNB-19 CNS): 6.77 µM
TGI (SNB-19 CNS): > 25 µM
GI50 (MCF7 breast): 1.14 µM
TGI (MCF7 breast): 4.75 µM
GI50 (UO-31 renal): 1.13 µM
TGI (UO-31 renal): 18.2 µM
GI50 (KM12 colon): 5.49 µM
TGI (KM12 colon): 18.1 µM
GI50 (DU-145 prostate): 7.12 µM
TGI (DU-145 prostate): > 25 µM
GI50 (SF-539 CNS): 3.61 µM
TGI (SF-539 CNS): 7.03 µM
GI50 (SNB-75 CNS): 0.745 µM
TGI (SNB-75 CNS): 18.3 µM
GI50 (HOP-92 NSCLC): 2.65 µM
TGI (HOP-92 NSCLC): 6.57 µM
GI50 (M14 melanoma): 3.24 µM
TGI (M14 melanoma): 8.35 µM
GI50 (SK-MEL-5 melanoma): 3.84 µM
TGI (SK-MEL-5 melanoma): 7.29 µM
GI50 (HS 578T breast): 3.4 µM
TGI (HS 578T breast): 9.29 µM
GI50 (IGROV1 ovarian): 1.49 µM
TGI (IGROV1 ovarian): 5.8 µM
